Measurements reported in US20070149508A1, “Six membered heteroaromatic inhibitors targeting resistant kinase mutations” (TargeGen, Inc., priority 2005, published 2007).
Structures can show the parent of a compound that is named as a salt.

Tests used:
[1] = biological target: T1, Abl (T315I) (Homo sapiens, UniProt P00519, T315I); assay: Abl (T315I) Kinase Assay (KinaseGlo luminescent detection of residual ATP); type: biochemical; details: Abl (T315I) IC50 (nM), Abl (T315I) (Upstate, 17 ng/well), Abltide 100 uM, ATP 500 nM, 60 minutes at 37° C.
T1 construct: purchased Upstate
Description: The assay was performed similarly to the Abl kinase assay. Abl (T315I) (Upstate, 17 ng/well); Abltide substrate (100 uM) and ATP (500 nM) comprised the reaction mixture. Compound was similarly diluted, and the reaction plate was incubated for 60 minutes at 37° C.

[2] = biological target: Abl kinase (Homo sapiens, UniProt P00519); assay: biochemical; details: Abl IC50 (nM), Abl kinase (Invitrogen, 20 ng/well), Abltide 100 μM, ATP 500 nM, 37° C. for 60 minutes, top concentration 10 uM
Description: Kinase activity was assessed using luminescent detection (KinaseGlo, Promega) of residual ATP concentration in reaction mixtures containing optimized levels of kinase, substrate, ATP, compound and appropriate buffers. Kinase, substrate and ATP concentrations were determined per the supplier's recommendations. Briefly, this involved running concentration curves to select for optimal signal.
The reaction mixture (50 ul/well) consisted of Abl kinase (Invitrogen, 20 ng/well); Abltide peptide substrate (Upstate, 100 μM) and ATP (500 nM). Each compound was evaluated at a top concentration of 10 uM with 1:3 dilution steps, 10 dilution steps total. Compound was diluted into DMSO and transferred to the reaction plate, resulting in a final DMSO concentration of 2%. This amount of DMSO was determined not to interfere with the enzyme. The reaction was conducted at 37° C. for 60 minutes. The degree of inhibition was assessed using IC50 determinations, which were obtained using GraphPad Prism4.

IC50 [1] | IC50 [2] | SMILES
475 nM | 1130 nM | O=C(Nc1cn2cc(/C=C/c3cnc(Nc4ccc(S(=O)(=O)C5CCNCC5)cc4)nc3)ccc2n1)C(F)(F)F [2,2,2-Trifluoro-N-{6-[(E)-2-(2-{[4-(piperidin-4-ylsulfonyl)phenyl]amino}pyrimidin-5-yl)vinyl]imidazolo[1,2-a]pyridin-2-yl}acetamide trifluoroacetic acid salt]
154 nM | 6.3 nM | O=S(=O)(c1ccc(Nc2ncc(/C=C/c3cccc4[nH]ccc34)cn2)cc1)C1CCNCC1 [5-((E)-2-(1H-indol-4-yl)vinyl)-N-(4-(piperidin-4-2-amine]
2270 nM | 127 nM | O=C1Cc2c(/C=C/c3cnc(Nc4ccc(S(=O)(=O)C5CCNCC5)cc4)nc3)cccc2N1 [4-(2-{2-[4-(Piperidine-4-sulfonyl)-phenylamino]-pyrimidin-5-yl}-vinyl)-1,3-dihydro-indol-2-one, hydrogen chloride]
184 nM | 12 nM | O=S(=O)(c1ccc(Nc2ncc(/C=C/c3cccc4[nH]ncc34)cn2)cc1)N1CCCNCC1 [[4-([1,4]Diazepane-1-sulfonyl)-phenyl]-{5-[2-(1H-indazol-4-yl)-vinyl]-pyrimidin-2-yl}-amine]
436 nM | 39 nM | Cc1nc(Nc2ccc(S(=O)(=O)NCCN3CCCC3)cc2)ncc1/C=C/c1cccc(O)c1 [4-{5-[2-(3-Hydroxy-phenyl)-vinyl]-4-methyl-pyrimidin-2-ylamino}-N-(2-pyrrolidin-1-yl-ethyl)-benzenesulfonamide]
87 nM | 360 nM | Nc1nc2ccc(/C=C/c3cnc(Nc4ccc(C(=O)N5CCNCC5)cc4)nc3)cc2s1 [(4-{5-[2-(2-Amino-benzothiazol-6-yl)-vinyl]-pyrimidin-2-ylamino}-phenyl)-piperazin-1-yl-methanone]
486 nM | 162 nM | O=S(=O)(c1ccc(Nc2ncc(/C=C/c3cccc(C(F)F)c3)cn2)cc1)C1CCNCC1 [5-(3-(difluoromethyl)styryl)-N-(4-piperidin-4-ylsulfonyl)phenyl)pyrimidin 2-amine. Triflate]
248 nM | 16 nM | Cc1cc(Nc2ncc(/C=C/c3cccc(O)c3)cn2)cc(C)c1S(=O)(=O)N(C)CCN1CCCC1 [4-{5-[2-(3-Hydroxy-phenyl)-vinyl]-pyrimidin-2-ylamino}-2,6,N-trimethyl-N-(2-pyrrolidin-1-yl-ethyl)-benzenesulfonamide]
522 nM | 210 nM | Nc1cc(C(F)(F)F)cc(/C=C/c2cnc(Nc3ccc(S(=O)(=O)C4CCNCC4)cc3)nc2)c1N [3-((E)-2-(2-(4-(piperidin-4-ylsulfonyl)phenylamino)pyrimidin-5-yl)vinyl)-5-(trifluoromethyl)benzene 1,2-diamine.]
1570 nM | 4250 nM | C=Cc1cnc(Nc2ccc(S(=O)(=O)C3CCN(C)CC3)cc2)nc1 [N-(4-(1-methylpiperidin-4-ylsulfonyl)phenyl)-5-vinylpyrimidin-2-amine]
173 nM | 81 nM | Nc1nc2ccc(/C=C/c3cnc(Nc4ccc(S(=O)(=O)CCCN5CCCC5)cc4)nc3)cc2s1 [6-{(E)-2-[2-({4-[(3-pyrrolidin-1-ylpropyl)sulfonyl]phenyl}amino)pyrimidin-5-yl]vinyl}-1,3-benzothiazol-2-amine trifluoroacetic acid salt]
251 nM | 77 nM | O=S(=O)(c1ccc(Nc2ncc(/C=C/c3cccc4[nH]ncc34)cn2)cc1)N(CCO)C1CCNCC1 [N-(2-hydroxyethyl)-4-({5-[(E)-2-(1H-indazol-4-yl)vinyl]pyrimidin-2-yl}amino)-N-piperidin-4-ylbenzenesulfonamide]
2600 nM | 86 nM | C(=C\c1cccc2[nH]ccc12)/c1cnc(Nc2cccc(N3CCNCC3)c2)nc1 [{5-[2-(1H-Indol-4-yl)-vinyl]-pyrimidin-2-yl}-(3-piperazin-1-yl-phenyl)-amine]
1210 nM | 56 nM | Nc1cccc(/C=C/c2cnc(Nc3ccc(S(=O)(=O)C4CCNCC4)cc3)nc2)n1 [5-((E)-2-(6-aminopyridin-2-yl)vinyl)-N-(4-(piperidin-4-ylsulfonyl)phenyl)pyrimidin-2-amine Hydrochloride]
156 nM | 154 nM | Nc1nc2ccc(/C=C/c3cnc(Nc4ccc(S(=O)(=O)N5CCNCC5)c(NCCO)c4)nc3)cc2s1 [2-{[5-({5-[(E)-2-(2-amino-1,3-benzothiazol-6-yl)vinyl]pyrimidin-2-yl}amino)-2-(piperazin-1-ylsulfonyl)phenyl]amino}ethanol]
169 nM | 7.9 nM | C(=C\c1cccc2[nH]ncc12)/c1cnc(Nc2ccc(OC3CCNCC3)cc2)nc1 [5-[(E)-2-(1H-indazol-4-yl)vinyl]-N-[4-(piperidin-4-yloxy)phenyl]pyrimidin-2-amine trifluoroacetic acid salt]

IC50 [1] | IC50 [2] | SMILES
38 nM | 40 nM | Nc1nc2ccc(/C=C/c3cnc(Nc4ccc(S(=O)(=O)N5CCNCC5)cc4)nc3)cc2s1 [(E)-6-(2-(2-(4-(piperazin-1-ylsulfonyl)phenylamino)pyrimidin-5-yl)vinyl)benzo[d]thiazol-2-amine]
213 nM | 12 nM | O=S(=O)(c1ccc(Nc2ncc(/C=C/c3ccc(F)c(O)c3)cn2)cc1)C1CCNCC1 [2-Fluoro-5-(2-{2-[4-(piperidine-4-sulfonyl)-phenylamino]-pyrimidin-5-yl}-vinyl)-phenol]
283 nM | 272 nM | Nc1nc2ccc(/C=C/c3cnc(Nc4ccc([S+]([O-])CCN5CCOCC5)cc4)nc3)cc2s1 (stereo not shown) [6-(2-{2-[4-(2-Morpholin-4-yl-ethanesulfinyl)-phenylamino]-pyrimidin-5-yl}-vinyl)-benzothiazol-2-ylamine]
738 nM | 26 nM | O=S(=O)(NCCN1CCCC1)c1ccc(Nc2ncc(/C=C/c3cccc4[nH]ccc34)cn2)cc1 [4-({5-[(E)-2-(1H-indol-4-yl)vinyl]pyrimidin-2-yl}amino)--N-[4-(2-pyrrolidin-1-ylethyl)benzenesulfonamide]
5600 nM | 5110 nM | O=C(Nc1nc2ccc(/C=C/c3cnc(Nc4ccc(S(=O)(=O)N5CCNCC5)cc4)nc3)cc2s1)c1cccc(C(F)(F)F)c1 [N-[6-(2-{2-[4-(Piperazine-1-sulfonyl)-phenylamino]-pyrimidin-5-yl]-vinyl)-benzothiazol-2-yI]-3-trifluoromethyl-benzamide]
561 nM | 31 nM | Nc1cccc(/C=C/c2cnc(Nc3ccc(S(=O)(=O)C4CCNCC4)cc3)nc2)c1 [15-(3-aminostyryl)-N-(4-(piperidin-4-ylsulfonyl)phenyl)pyrimidin-2-amine Hydrochloride]
898 nM | 1440 nM | Nc1nc2ccc(/C=C/c3cnc(Nc4ccc(S(=O)(=O)NC5CCCNC5)cc4)nc3)cc2s1 (stereo not shown) [4-{5-[2-(2-Aminobenzothiazol-6-yl)-vinyl]-pyrimidin-2-ylamino}-N-piperidin-3-yl-benzenesulfonamide Hydrochloride]
1800 nM | 2420 nM | O=S(=O)(c1ccc(Nc2ncc(/C=C/c3ccc4c(c3)CC/C4=N/O)cn2)cc1)C1CCNCC1 [5-(2-{2-[4-(Piperidine-4-sulfonyl)-phenylaminol]-pyrimidin-5-yl}-vinyl)-indan-1-one oxime]
2740 nM | 629 nM | O=C(Nc1nc2ccc(/C=C/c3cnc(Nc4ccc(S(=O)(=O)C5CCNCC5)cc4)nc3)cc2s1)c1cccc(F)c1 [N-(6-((E)-2-(2-(4-(piperidin-4-ylsulfonyl)phenylamino)pyrimidin-5-yl)vinyl)benzo[d]thiazol-2-yl)-3-fluorobenzamide Hydrochloride]
1320 nM | 42 nM | C(=C\c1cccc2[nH]ccc12)/c1cnc(Nc2ccc(C3CCNCC3)cc2)nc1 [{5-[2-(1H-Indol-4-yl)-vinyl]-pyrimidin-2-yl}-(4-piperidin-4-yl-phenyl)-amine]
202 nM | 191 nM | O=S(=O)(c1ccc(Nc2ncc(/C=C/c3n[nH]c4ccccc34)cn2)cc1)C1CCNCC1 [5-((E)-2-(1H-indazol-3-yl)vinyl)-N-(4-(piperidin-4-ylsulfonyl)phenyl)pyrimidin-2-amine Hydrochloride]
233 nM | 6.5 nM | O=S(=O)(c1ccc(Nc2ncc(/C=C/c3cccc4[nH]ncc34)cn2)cc1NCCO)N1CCNCC1 [2-{[5-({5-[(E)-2-(1H-indazol-4-yl)vinyl]pyrimidin-2-yl}amino)-2-(piperazin-1-ylsulfonyl)phenyl]amino}ethanol]
428 nM | 259 nM | Nc1nc2ccc(/C=C/c3cnc(Nc4ccc(OC5CCNCC5)cc4)nc3)cc2s1 [6-[(E)-2-(2-{[4-(piperidin-4-yloxy)phenyl]amino}pyrimidin-5-yl)vinyl]-1,3-benzothiazol-2-amine]
202 nM | 8.4 nM | O=S(=O)(c1ccc(Nc2ncc(/C=C/c3cccc4[nH]ccc34)cn2)cc1)C1CCN(CCO)CC1 [2-(4-(4-(5-((E)-2-(1H-indol-4-yl)vinyl)pyrimidin-2-ylamino)phenylsulfonyl)piperidin-1-yl)ethanol Hydrochloride]
1290 nM | 374 nM | O=S(=O)(c1ccc(Nc2ncc(/C=C/c3ccc(-c4ncc[nH]4)cc3)cn2)cc1)C1CCNCC1 [5-((E)-(4-(1H-imidazol-2-yl)styryl))-N-(4-(piperidin-4-ylsulfonyl)phenyl)pyrimidin-2-amine hydrochloride]
514 nM | 66 nM | O=S(=O)(NCCO)c1ccc(Nc2ncc(/C=C/c3cccc(O)c3)cn2)cc1N1CCNCC1 [N-(2-hydroxyethyl)-4-({5-[(E)-2-(3-hydroxyphenyl)vinyl]pyrimidin-2-yl}amino)-2-piperazin-1-ylbenzenesulfonamide trifluoroacetic acid salt]
